From ChEMBL document CHEMBL1201862, “PubChem BioAssay data set” (2004)
Activity calls are given as the source filed them.

What was measured:
Protein skinhead-1 = molecular target: T1, Protein skinhead-1 (Caenorhabditis elegans, UniProt P34707); assay type: functional
T1 sequence (P34707 whole entry): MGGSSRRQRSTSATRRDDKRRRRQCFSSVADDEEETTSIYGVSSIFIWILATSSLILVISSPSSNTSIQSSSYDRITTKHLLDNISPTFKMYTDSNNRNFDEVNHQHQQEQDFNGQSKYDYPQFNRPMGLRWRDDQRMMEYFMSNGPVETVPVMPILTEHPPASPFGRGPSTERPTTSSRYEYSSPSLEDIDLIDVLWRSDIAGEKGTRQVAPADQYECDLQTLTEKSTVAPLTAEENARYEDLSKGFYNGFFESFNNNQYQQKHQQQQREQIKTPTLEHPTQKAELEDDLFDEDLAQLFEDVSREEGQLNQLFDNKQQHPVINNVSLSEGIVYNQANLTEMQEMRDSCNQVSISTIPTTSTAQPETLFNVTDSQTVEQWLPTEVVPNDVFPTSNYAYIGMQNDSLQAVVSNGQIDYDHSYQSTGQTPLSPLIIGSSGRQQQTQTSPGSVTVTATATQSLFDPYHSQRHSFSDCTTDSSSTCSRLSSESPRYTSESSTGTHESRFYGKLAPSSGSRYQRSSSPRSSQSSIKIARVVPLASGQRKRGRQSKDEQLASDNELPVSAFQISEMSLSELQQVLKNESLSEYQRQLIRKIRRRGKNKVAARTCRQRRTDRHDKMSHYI

[1] = molecular target: T2, Corticotropin-releasing factor receptor 2/Corticotropin-releasing factor-binding protein (Homo sapiens, UniProt P24387+Q13324); test: Dose Response confirmation of uHTS hits for small molecule antagonists of the CRF-binding protein and CRF-R2 receptor complex.; assay type: functional; details: read-out: IC50_Mean
T2 sequence (Q13324 whole entry): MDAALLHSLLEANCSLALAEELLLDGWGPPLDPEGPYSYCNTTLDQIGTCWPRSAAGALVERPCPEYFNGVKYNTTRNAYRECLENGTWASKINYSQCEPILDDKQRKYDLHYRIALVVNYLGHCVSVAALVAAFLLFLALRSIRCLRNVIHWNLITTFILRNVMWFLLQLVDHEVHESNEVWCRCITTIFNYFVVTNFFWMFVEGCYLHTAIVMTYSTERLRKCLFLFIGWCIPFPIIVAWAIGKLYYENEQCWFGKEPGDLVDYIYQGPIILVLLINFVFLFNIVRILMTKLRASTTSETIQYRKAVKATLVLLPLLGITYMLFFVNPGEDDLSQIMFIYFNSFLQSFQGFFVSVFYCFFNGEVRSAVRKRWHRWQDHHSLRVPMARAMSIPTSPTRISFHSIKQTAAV
T2 sequence (P24387 whole entry): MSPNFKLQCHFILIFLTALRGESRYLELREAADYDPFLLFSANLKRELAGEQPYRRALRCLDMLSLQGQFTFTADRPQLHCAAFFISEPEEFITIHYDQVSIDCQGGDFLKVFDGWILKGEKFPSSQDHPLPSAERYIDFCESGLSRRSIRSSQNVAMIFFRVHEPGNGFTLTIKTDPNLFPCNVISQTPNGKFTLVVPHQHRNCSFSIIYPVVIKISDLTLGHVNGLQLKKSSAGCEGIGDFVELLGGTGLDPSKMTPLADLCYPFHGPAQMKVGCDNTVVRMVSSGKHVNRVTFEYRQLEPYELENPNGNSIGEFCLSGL

[2] = molecular target: T2, Corticotropin-releasing factor receptor 2/Corticotropin-releasing factor-binding protein; test: activators of CRF receptor 2 with binding protein – uHTS hits, confirmation (AID 602473); assay type: functional; details: read-out: EC50_Mean
[3] = THP-1 cell cytotoxicity, dose response, cytotoxicity control for Vif-APOBEC3G degradation inhibitor project, THP-1 cells (AID 1117359); assay type: functional; details: Human immunodeficiency virus 1, THP-1
Fatty acid synthase [4] = molecular target: T3, Fatty acid synthase (Homo sapiens, UniProt P49327); test: FAS thioesterase domain inhibitors, dose response, biochemical, endpoint fluorescence intensity, uHTS hits (AID 624327); assay type: functional;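 note: fluorescence from hydrolysis of an O-methyl fluorescein acyl ester substrate by the enzyme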
T3 sequence (P49327 whole entry, the tested form may be a part): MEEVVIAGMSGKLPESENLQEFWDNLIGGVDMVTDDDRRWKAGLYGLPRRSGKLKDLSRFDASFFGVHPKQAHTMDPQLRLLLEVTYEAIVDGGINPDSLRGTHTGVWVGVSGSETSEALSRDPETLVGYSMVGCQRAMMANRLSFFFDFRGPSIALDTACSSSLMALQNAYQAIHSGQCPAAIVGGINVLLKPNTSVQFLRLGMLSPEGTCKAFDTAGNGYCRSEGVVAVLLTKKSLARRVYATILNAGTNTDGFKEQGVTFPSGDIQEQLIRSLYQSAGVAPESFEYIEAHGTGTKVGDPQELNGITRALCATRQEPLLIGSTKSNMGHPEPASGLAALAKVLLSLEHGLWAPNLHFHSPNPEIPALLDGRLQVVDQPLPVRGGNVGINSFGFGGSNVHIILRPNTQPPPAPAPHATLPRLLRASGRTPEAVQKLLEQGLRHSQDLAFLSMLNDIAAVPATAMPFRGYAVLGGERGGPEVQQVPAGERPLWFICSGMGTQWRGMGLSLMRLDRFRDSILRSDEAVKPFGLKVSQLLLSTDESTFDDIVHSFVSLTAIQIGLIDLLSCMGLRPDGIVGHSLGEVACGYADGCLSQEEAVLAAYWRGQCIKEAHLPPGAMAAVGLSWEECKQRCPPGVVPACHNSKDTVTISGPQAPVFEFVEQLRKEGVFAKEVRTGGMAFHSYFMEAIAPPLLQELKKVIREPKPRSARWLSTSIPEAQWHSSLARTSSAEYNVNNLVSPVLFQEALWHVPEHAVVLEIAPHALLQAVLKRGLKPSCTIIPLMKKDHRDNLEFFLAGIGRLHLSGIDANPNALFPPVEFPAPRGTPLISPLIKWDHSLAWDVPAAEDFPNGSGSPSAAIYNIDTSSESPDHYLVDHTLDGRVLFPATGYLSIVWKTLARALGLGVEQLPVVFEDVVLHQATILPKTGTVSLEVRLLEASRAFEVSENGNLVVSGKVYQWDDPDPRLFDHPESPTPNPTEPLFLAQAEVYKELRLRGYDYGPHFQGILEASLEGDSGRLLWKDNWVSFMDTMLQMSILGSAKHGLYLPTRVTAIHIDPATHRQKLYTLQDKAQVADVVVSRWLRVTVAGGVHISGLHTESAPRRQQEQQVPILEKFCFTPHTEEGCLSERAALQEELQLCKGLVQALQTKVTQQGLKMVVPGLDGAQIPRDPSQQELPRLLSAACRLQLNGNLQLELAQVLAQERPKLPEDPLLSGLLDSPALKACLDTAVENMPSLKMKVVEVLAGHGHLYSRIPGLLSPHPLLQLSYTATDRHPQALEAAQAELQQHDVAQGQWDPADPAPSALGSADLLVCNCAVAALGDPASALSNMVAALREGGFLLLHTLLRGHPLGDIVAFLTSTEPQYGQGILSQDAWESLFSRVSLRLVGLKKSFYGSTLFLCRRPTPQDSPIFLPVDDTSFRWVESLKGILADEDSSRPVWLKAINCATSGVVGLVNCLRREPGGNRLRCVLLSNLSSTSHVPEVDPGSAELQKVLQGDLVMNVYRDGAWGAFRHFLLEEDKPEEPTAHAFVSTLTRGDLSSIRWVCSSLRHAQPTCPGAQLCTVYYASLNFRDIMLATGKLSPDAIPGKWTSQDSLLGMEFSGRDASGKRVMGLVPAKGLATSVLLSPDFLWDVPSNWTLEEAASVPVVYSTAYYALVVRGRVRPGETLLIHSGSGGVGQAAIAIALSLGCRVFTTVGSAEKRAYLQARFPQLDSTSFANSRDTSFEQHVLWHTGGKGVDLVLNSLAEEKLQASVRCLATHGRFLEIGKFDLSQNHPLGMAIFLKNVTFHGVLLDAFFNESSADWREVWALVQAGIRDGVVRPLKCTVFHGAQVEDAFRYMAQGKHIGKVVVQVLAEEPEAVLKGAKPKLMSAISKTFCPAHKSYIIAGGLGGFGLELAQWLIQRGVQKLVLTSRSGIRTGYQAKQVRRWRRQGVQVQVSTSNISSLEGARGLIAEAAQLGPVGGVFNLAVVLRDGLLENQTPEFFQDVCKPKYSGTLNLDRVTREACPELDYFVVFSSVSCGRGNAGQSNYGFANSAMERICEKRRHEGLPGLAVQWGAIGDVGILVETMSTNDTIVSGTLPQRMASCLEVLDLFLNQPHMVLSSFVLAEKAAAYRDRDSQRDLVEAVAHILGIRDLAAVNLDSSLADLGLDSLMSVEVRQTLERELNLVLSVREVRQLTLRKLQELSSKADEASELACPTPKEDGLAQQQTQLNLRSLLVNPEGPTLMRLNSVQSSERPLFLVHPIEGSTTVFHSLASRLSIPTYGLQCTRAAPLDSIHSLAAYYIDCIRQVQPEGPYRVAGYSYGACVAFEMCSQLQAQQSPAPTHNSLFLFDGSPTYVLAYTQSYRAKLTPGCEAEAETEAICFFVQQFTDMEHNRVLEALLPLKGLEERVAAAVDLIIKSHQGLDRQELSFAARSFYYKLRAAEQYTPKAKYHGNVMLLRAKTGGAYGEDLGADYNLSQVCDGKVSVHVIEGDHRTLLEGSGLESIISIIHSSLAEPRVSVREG

Fatty acid synthase [5] = molecular target: T3, Fatty acid synthase; test: FAS thioesterase domain inhibitors, dose response, biochemical, kinetic fluorescence intensity (AID 624326); assay type: functional;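 note: rate of fluorescence rise from hydrolysis of a fluorogenic O-methyl fluorescein ester substrate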
[6] = molecular target: T4, Carboxy-terminal domain RNA polymerase II polypeptide A small phosphatase 1 (Homo sapiens, UniProt Q9GZU7); test: inhibitors of CTDSP1, concentration-response testing, biochemical assay, absorbance-based, actives from ultra-high-throughput screening (AID 540297); assay type: functional
T4 sequence (Q9GZU7 whole entry): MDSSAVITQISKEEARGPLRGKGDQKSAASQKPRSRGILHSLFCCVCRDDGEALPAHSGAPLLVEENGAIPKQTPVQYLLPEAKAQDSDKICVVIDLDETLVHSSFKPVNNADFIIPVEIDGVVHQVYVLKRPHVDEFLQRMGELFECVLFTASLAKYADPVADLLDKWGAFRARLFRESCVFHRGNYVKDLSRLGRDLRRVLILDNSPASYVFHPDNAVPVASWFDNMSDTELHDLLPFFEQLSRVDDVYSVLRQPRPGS

Streptococcus = test: Group A Streptococcus viability loss, dose response, counter-screen for streptokinase expression inhibitor project, luminescence, BacTiterGlo (AID 1915); assay type: functional, organism-based;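 note: potency for reduction of bacterial viability or growth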
[7] = test system: Streptococcus sp. 'group A'; test: growth inhibition of control SK(-) GAS strain, dose response, counter-screen for streptokinase expression inhibitor project, luminescence, kanamycin, BacTiterGlo, confirmation (AID 1900); assay type: functional, organism-based
Streptokinase A = molecular target: T5, Streptokinase A (Streptococcus pyogenes serotype M1, UniProt P10520); test: S. pyogenes streptokinase expression inhibitors, potency, dose response, plasminogen activation absorbance, OD405 (AID 1914); assay type: functional, Streptococcus pyogenes M1 GAS;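 note: secreted streptokinase activity via plasminogen activation per viability signal from cell pellet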
T5 sequence (P10520 whole entry): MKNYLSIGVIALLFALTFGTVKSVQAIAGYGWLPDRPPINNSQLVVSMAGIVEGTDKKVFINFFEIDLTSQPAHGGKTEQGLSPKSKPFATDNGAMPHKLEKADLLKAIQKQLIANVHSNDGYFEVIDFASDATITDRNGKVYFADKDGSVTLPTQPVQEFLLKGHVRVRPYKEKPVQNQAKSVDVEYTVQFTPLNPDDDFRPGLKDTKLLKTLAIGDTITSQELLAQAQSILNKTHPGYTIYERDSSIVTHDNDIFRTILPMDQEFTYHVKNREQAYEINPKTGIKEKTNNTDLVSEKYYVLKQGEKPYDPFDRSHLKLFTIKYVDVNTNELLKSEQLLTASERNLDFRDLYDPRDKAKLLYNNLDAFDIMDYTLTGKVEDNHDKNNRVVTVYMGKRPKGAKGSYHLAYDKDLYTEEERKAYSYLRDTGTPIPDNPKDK

[8] = HEp-2 cell cytotoxicity, dose response, cytotoxicity control for RSV inhibitor project, HTS (AID 2410); assay type: functional; details: human respiratory syncytial virus
[9] = growth suppression of PTEN-null colon cells, dose response, cell-based, HCT116 PTEN knockout (AID 1047); assay type: functional;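 note: HCT116 colon tumor cells with PTEN knocked out; cells exposed to compound for 60 hours before readout; potency for loss of cell viability measured by luminescence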
[10] = growth suppression of beta-catenin-knockout colon cells, dose response, cell-based, HCT116, human colon tumor (AID 1045); assay type: functional;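 note: HCT116 colon tumor cells with beta catenin knocked out; cells exposed to compound for 60 hours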
Vero = test: cells; assay type: functional; details: Chlorocebus sabaeus
[11] = cytotoxicity toward NIH3T3 fibroblasts, dose response, counter-screen, cell-based, ATP luminescence, mouse fibroblasts (AID 2010); assay type: functional;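 note: cells exposed to compound for about 90 hours before reading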
[12] = inhibitors of intracellular T. cruzi replication, confirmation, NIH3T3 host cells, beta-gal luminescence (AID 2044); assay type: functional, cell-based;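 note: intracellular parasites grown in NIH/3T3 mouse fibroblasts as host cells; luminescent beta-galactosidase reporter signal from transgenic T. cruzi replicating inside host cells; inhibitors lower the luminescence signal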
Cytochrome P450 1A2 = molecular target: T6, Cytochrome P450 1A2 (Homo sapiens, UniProt P05177);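 note: PubChem cytochrome P450 panel assay, CYP1A2 panel member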
T6 sequence (P05177 whole entry): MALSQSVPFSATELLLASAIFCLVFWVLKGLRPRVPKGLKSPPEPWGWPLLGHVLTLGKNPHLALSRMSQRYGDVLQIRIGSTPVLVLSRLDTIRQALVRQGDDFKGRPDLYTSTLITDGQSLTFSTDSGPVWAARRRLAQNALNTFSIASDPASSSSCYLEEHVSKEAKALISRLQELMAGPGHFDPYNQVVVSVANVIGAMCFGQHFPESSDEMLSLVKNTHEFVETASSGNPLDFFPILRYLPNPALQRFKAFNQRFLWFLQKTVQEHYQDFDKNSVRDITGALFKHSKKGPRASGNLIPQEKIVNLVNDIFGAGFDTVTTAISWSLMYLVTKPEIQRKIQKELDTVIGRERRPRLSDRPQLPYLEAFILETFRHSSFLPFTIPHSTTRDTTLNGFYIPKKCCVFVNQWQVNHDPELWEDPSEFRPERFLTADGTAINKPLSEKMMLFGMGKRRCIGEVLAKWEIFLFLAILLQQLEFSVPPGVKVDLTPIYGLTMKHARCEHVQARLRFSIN

Cytochrome P450 2C9 = Cytochrome P450 2C9 (Homo sapiens, UniProt P11712)
Cytochrome P450 2C9, sequence (P11712 whole entry): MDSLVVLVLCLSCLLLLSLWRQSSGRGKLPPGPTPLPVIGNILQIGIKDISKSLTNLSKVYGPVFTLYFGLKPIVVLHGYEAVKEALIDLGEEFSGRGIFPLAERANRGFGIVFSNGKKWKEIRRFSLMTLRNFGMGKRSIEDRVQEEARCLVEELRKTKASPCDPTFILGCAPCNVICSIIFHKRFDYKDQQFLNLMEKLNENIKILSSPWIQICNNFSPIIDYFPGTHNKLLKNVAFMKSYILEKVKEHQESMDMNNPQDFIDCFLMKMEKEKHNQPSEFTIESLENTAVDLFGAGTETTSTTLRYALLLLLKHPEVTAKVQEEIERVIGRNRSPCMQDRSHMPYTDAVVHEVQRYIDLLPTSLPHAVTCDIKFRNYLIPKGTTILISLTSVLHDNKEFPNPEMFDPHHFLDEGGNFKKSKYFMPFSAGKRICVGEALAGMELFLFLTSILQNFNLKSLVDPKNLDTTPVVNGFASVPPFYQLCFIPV

Compound: COc1ccc(N(C(=O)CNC(=O)c2ccco2)C(C(=O)NC2CCCCC2)c2cccnc2)cc1 (stereo not drawn)
- IC50 (Protein skinhead-1): > 100 µM (inactive)

Compound: COc1ccc(Cc2nc(-c3ccc(Cl)cc3)no2)cc1
- IC50 [1]: > 47.1 µM (inactive)
- IC50 (Protein skinhead-1): > 100 µM (inactive)
- EC50 [2]: > 53 µM (inactive)

Compound: COc1ccc(C2Nc3ccccc3C(=O)N2c2ccc(Cl)cc2)cc1Cn1cc([N+](=O)[O-])cn1 (stereo not drawn)
- CC50 [3]: > 40 µM (active)

Compound: COc1ccc2cc3cc(C(=O)N4CCCCCC4)oc3nc2c1
- IC50 (Fatty acid synthase [4]): 3.92 µM (active)
- IC50 (Fatty acid synthase [5]): 3.37 µM (active)

Compound: O=C(O)/C(=C/c1ccco1)NC(=O)c1ccccc1
- IC50 [6]: 6.04 µM (active)

Compound: CCCCOc1ccc(-c2c(C#N)c(N)nc(SCC(N)=O)c2C#N)cc1
- EC50 (Streptococcus): > 150 µM (not active)
- IC50 (Fatty acid synthase [4]): 1.12 µM (active)
- EC50 [7]: 6.77 µM (active)
- IC50 (Fatty acid synthase [5]): 0.644 µM (active)
- EC50 (Streptokinase A): > 150 µM (not active)
- CC50 [8]: 19.9 µM (active)
- EC50 [9]: 15.8 µM (active)
- EC50 [10]: 21.2 µM (active)

Compound: CC(C)(C)c1ccc2c(c1)OC(C(=O)N/N=C/c1ccc([N+](=O)[O-])o1)CO2 (stereo not drawn)
- EC50 (Streptococcus): 10.3 µM (active)
- CC50 (Vero): > 25 µM (active)
- EC50 [11]: > 60 µM (not active)
- IC50 [6]: 5.41 µM (active)
- EC50 [7]: 5.27 µM (active)
- EC50 [12]: 0.102 µM (active)
- EC50 (Streptokinase A): 5.82 µM (active)

Compound: Cc1[nH]n(-c2ccccc2)c(=O)c1CCOC(=O)c1ccc(C(F)(F)F)cc1
- AC50 (Cytochrome P450 1A2): 15.8 µM (inconclusive)
- AC50 (Cytochrome P450 2C9): inconclusive

Compound: CCOC(=O)c1cc2c(=O)n3ccccc3nc2n(Cc2ccco2)/c1=N/C(=O)c1ccc(OC)cc1
- IC50 (Fatty acid synthase [4]): 14.6 µM (active)
- IC50 (Fatty acid synthase [5]): 80 µM (inactive)

Compound: O=c1c2ccccc2sc2ccccc12
- IC50 (Protein skinhead-1): 59.3 µM (inactive)
